From US11998550B2, “Trametinib prevents mesothelial-mesenchymal transition and ameliorates abdominal adhesion and pulmonary fibrosis formation” (Thomas Jefferson University, priority 2017, dated 2024)

What was measured:
[1] = system: rat peritoneal mesothelial cells; conditions: previous finding, ref [10]; cited from earlier work
Solubility in water = format: physicochemical
[2] = system: rat peritoneal mesothelial cells; assay: TGF-β induced mesothelial/mesenchymal transition (MMT), cell morphology; format: cell-based; conditions: trametinib alone, no TGF-β, five days
Description: Isolated mesothelial cells were incubated under control conditions without either TGF-β or trametinib, with TGF-β or trametinib alone, or with both TGF-β and trametinib for five days (FIGS. 1 and 2).
The experiments in this study were approved by the Institutional Animal Care and Use Committee at Thomas Jefferson University, and were performed in accordance with the National Institutes of Health guidelines for the care and handling of laboratory animals. RPMCs were isolated and cultured as described previously. Briefly, Sprague Dawley rats weighing 150 g-250 g, purchased from Jackson Laboratory, were injected intra-peritoneally with 30 ml of 0.25% trypsin/2.21 mM EDTA under Isoflurane anesthesia and were kept on the metal pad warmed to 37° C. for one hour; after which the abdominal fluid was collected and centrifuged at 300 g for 10 minutes. The isolated pelleted cells were re-suspended and cultured in DMEM/F12 medium supplemented with 10% (v/v) FBS at 37° C. in a humidified atmosphere of 5% CO2 in air. The RPMCs, from the fourth to seventh passages (split ratio 1:4), at 90% confluence were used for the experiments. The cells were treated either with 10 ng/ml of TGF-β1 (R&D systems) alone, or with TGF-β1 and the MEK1/2 inhibitor, Trametinib (2 or 5 nM).

C57BL/6 mice = assay: Cecal abrasion model of intra-abdominal adhesion formation, drug by osmotic pump for eight days
Description: Mice were allowed to acclimate in the animal facility for at least one week prior to surgery, given free access to standard chow and water and a 12-h light-dark cycle in standard acrylic cages with wood chip bedding. Animals were randomly assigned into either an experimental group (laparotomy and cecal abrasion) or a control group (laparotomy only).
Briefly, mice underwent induction and maintenance anesthesia with 1-3% isofluorane with supplemental oxygen. After adequate sedation was achieved, mice were weighed and 0.1 mg/kg subcutaneous Buprenex (Hospira, Inc., Lake Forest, IL) was administered to ensure analgesia. The ventral surface was clipped along the midline and the skin was sterilized with betadine. A 2 cm midline incision was made subxiphoid to avoid injuring the bladder and the cecum was identified and externalized. The anti-mesenteric side of the cecum was gently swiped 30 times with gauze then returned to the abdomen. The incision was closed with a double layer of sutures with 2-0 silk [13]. […] In the drug escalation study, laparotomy and cecal abrasion were carried out as above as well as sub-dermal placement of the osmotic pumps.
Groups of 5 animals were given 0.1, 1.0 or 3.0 mg/kg animal weight of drug/day via osmotic pumps (Alzet Osmotic Pump 1002, Cupertino, CA) for eight days prior to sacrifice. The volume delivered/day was 6 ul of drug. Control mice underwent induction with anesthesia and laparotomy only. In addition, 5 animals underwent laparotomy and placement of the osmotic pumps which were filled with “drug vehicle (DMSO)” alone i.e., no drug. After 8 days of drug treatment, mice were euthanized under isofluorane anesthesia followed by cervical dislocation. Adhesions were examined by two independent practitioners. […]
Intestinal tissue was placed in Tissue-Tek O.C.T. Compound (Sakura Finetek, Torrance, CA) and immediately frozen in liquid nitrogen. […] Slides were mounted with DAPI Fluoromount-G (Southern Biotech) and fluorescence images were taken with a Zeiss epi-fluorescence microscope. […]

[3] = system: phospho-MEK1/2, phospho-Erk1/2, FNEDA, αSMA, phospho-Smad2 (linker); assay: Western analysis of TGF-β1 treated rat peritoneal mesothelial cells; format: cell-based; conditions: Western blot, FIG. 2
Description: These insights led us to explore the potential mechanisms of action of trametinib using Western blotting analyses (FIG. 2). […] These increases in gene expression of phosphor-Erk 1/2, FNEDA, αSMA and p-SMAD2 (linker) were blocked by as low a concentration of trametinib as 2 nM (FIG. 2).
The experiments in this study were approved by the Institutional Animal Care and Use Committee at Thomas Jefferson University, and were performed in accordance with the National Institutes of Health guidelines for the care and handling of laboratory animals. RPMCs were isolated and cultured as described previously. […]
RPMCs were lysed in ice-cold modified RIPA buffer with protease inhibitor cocktail (50 mM/L Tris-HCl, 1% NP-40, 0.25% Na-deoxycholate, 150 mM/L NaCl, 1 mM/L EDTA, 1 mmol/L phenylmethyl sulfonyl fluoride, 1 mM/L sodium orthovanadate, 1 mM/L NaF, pH 7.4). Equivalent amounts of homogenate (50 μg/well), determined by Coomassie blue assay, were separated by sodium dodecyl sulfate polyacrylamide gel electrophoresis (SDS-PAGE), transferred to either nitrocellulose or PVDF membranes, and detected by SuperSignal West Femto or Pico chemiluminescence.

| solubility in water (Solubility in water) | average decrease in weight (C57BL/6 mice; 1.0 mg dose, eight day period of drug delivery) [%] | average increase in weight (C57BL/6 mice; 3.0 mg dose, eight day period of drug delivery) [%] | wound closure and healing at laparotomy site (C57BL/6 mice; highest drug dose (3 mg/kg/day)) | Structure (SMILES) | effect on rat peritoneal mesothelial/mesenchymal transition induced by TGF-β [1] | effect of drug alone on cell appearance / toxicity [2] | concentration blocking TGF-β induced increases of phospho-Erk1/2, FNEDA, αSMA and p-SMAD2 (linker) [3] [nM] |
| --- | --- | --- | --- | --- | --- | --- | --- |
| – | – | – | – | N#CC(=C(/N)Sc1ccccc1N)/C(C#N)=C(\N)Sc1ccccc1N [U0126] | blocked | – | – |
| minimally soluble in water | 2.2 | 0.5 | no effect on wound closure and healing | CC(=O)Nc1cccc(-n2c(=O)n(C3CC3)c(=O)c3c(Nc4ccc(I)cc4F)n(C)c(=O)c(C)c32)c1 [trametinib] | – | no effect and no apparent toxic effects | ≤ 2 |
